Reference: patent US12371428B2 (Exelixis, Inc., priority 2019, dated 2025)

How the values were obtained:
[1] = target: KDR (phospho-KDR, VEGF165-stimulated HUVEC cells) (Homo sapiens (Human), UniProt P35968); assay: KDR autophosphorylation ELISA in HUVEC cells (Example G); assay type: cell-based; conditions: cellular activity; KDR autophosphorylation ELISA in HUVEC cells
In short: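 HUVECs were serum-starved 24 h, given compound as an 8-point dilution series (0.3% DMSO final) for 1 h, then stimulated with 100 ng/mL VEGF165 for 5 min. Lysate phospho-KDR was quantified by sandwich ELISA against a phospho-KDR standard, and IC50s came from a 4-parameter logistic fit.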

[2] = target: Mer (phospho-Mer, MERTK-transfected 293A cells) (Homo sapiens (Human), UniProt Q12866); assay: Mer autophosphorylation ELISA in transient transfected 293A cells (Example H); assay type: cell-based; conditions: cellular activity; Mer autophosphorylation ELISA in transient transfected 293A cells
Chain of Mer (phospho-Mer, MERTK-transfected 293A cells) (Q12866 21-999): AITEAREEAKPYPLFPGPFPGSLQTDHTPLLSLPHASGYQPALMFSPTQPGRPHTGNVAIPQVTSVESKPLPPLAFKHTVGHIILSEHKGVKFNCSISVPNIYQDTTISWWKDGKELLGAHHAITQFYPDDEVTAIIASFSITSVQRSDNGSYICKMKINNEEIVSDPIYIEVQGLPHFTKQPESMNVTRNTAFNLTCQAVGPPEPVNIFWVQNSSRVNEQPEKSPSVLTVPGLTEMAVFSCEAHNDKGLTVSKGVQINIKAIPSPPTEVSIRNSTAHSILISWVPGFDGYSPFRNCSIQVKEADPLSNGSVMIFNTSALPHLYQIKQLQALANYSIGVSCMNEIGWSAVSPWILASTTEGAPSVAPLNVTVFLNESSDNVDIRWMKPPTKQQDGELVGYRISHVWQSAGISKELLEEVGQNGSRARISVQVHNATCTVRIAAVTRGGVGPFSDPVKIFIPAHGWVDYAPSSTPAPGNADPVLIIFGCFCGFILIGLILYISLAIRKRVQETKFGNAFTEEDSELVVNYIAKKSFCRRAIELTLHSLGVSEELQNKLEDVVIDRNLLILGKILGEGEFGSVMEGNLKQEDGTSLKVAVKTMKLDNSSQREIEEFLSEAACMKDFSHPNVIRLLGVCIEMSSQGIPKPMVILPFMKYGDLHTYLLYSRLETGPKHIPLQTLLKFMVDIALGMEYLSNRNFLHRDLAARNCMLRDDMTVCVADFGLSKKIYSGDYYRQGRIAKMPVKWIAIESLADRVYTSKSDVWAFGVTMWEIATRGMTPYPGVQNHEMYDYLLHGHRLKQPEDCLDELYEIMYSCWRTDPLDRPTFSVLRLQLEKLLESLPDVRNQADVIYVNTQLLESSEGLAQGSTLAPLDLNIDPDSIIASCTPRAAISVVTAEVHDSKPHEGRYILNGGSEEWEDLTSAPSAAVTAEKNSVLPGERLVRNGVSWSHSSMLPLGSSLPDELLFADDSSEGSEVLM
In short: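 293A cells transiently transfected with human MERTK were treated 1 h in serum-free medium with an 8-point compound dilution (0.3% DMSO final). Lysates were assayed by phospho-Mer sandwich ELISA against a phospho-Mer standard; IC50 came from a 4-parameter logistic fit, normalised to DMSO (100%) and reference-inhibitor (0%) controls.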

Chain of KDR (phospho-KDR, VEGF165-stimulated HUVEC cells) (P35968 20-1356): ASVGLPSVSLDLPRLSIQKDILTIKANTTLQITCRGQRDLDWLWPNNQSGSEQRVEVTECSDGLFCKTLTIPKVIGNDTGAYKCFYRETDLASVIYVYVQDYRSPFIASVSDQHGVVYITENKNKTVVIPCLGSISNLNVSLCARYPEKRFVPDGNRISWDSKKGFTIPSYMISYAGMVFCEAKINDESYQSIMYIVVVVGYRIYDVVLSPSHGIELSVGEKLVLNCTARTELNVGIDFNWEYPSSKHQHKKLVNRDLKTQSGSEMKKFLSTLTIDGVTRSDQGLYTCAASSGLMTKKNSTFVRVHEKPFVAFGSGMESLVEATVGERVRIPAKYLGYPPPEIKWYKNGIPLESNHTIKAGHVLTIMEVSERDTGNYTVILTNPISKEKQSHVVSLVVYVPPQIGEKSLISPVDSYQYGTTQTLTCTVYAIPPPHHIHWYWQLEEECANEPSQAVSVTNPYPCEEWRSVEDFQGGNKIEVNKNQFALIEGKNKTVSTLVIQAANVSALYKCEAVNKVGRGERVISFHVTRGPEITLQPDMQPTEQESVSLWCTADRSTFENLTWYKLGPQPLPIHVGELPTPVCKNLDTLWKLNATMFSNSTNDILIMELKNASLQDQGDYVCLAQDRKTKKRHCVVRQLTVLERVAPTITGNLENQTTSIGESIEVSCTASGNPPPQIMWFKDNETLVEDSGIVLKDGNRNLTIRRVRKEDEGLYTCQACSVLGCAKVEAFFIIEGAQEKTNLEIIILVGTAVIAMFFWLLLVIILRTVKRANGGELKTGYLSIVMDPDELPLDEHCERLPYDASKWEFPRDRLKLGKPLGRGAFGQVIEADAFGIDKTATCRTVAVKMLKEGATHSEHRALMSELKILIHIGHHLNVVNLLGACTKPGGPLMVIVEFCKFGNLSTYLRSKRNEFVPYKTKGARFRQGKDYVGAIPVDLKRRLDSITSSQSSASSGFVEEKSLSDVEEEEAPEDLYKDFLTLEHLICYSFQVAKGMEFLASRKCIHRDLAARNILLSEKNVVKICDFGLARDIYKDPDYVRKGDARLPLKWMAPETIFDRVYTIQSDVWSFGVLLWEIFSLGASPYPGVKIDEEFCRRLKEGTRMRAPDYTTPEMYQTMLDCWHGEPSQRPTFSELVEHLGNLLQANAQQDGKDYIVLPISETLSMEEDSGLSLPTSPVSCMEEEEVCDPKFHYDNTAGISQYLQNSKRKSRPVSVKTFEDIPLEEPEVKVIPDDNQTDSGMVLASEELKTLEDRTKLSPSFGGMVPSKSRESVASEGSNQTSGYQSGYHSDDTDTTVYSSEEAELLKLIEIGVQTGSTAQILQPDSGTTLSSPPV

SMILES | IC50 [1] [nM] | IC50 [2] [nM]
C=Cc1cc2nccc(Oc3ccc(NC(=O)c4cnc(C)c(-c5ccc(F)cc5)c4O)cc3F)c2nc1OC [Compound 422, N-[4-[(7-ethenyl-6-methoxy-1,5-naphthyridin-4-yl)oxy]-3-fluorophenyl]-5-(4-fluorophenyl)-4-hydroxy-6-methylpyridine-3-carboxamide] | < 100 | < 100
COCCOc1cc2nccc(Oc3ccc(NC(=O)c4c(C)nc(C)c(-c5ccc(F)cc5)c4O)cc3F)c2nc1OC [Compound 432, N-[3-fluoro-4-[[6-methoxy-7-(2-methoxyethoxy)-1,5-naphthyridin-4-yl]oxy]phenyl]-5-(4-fluorophenyl)-4-hydroxy-2,6-dimethylpyridine-3-carboxamide] | < 100 | < 100
COc1cc2nccc(Oc3ccc(NC(=O)c4cn(C5CC5)c(C)c(-c5ccc(F)cc5C)c4=O)cc3F)c2nc1OC [Compound 439, 1-cyclopropyl-N-[4-[(6,7-dimethoxy-1,5-naphthyridin-4-yl)oxy]-3-fluorophenyl]-5-(4-fluoro-2-methylphenyl)-6-methyl-4-oxopyridine-3-carboxamide] | > 300 | < 100
COc1cc2nccc(Oc3ccc(NC(=O)c4cnc(C)c(-c5ccc(F)cc5C)c4O)cc3F)c2nc1OC(C)C [Compound 416, N-[3-fluoro-4-[(7-methoxy-6-propan-2-yloxy-1,5-naphthyridin-4-yl)oxy]phenyl]-5-(4-fluoro-2-methylphenyl)-4-hydroxy-6-methylpyridine-3-carboxamide] | < 100 | < 100
COc1cc2nccc(Oc3ccc(NC(=O)c4nn(C)c(C)c(-c5ccc(F)cc5)c4=O)cc3)c2nc1OC [Compound 91, N-[4-[(6,7-Dimethoxy-1,5-naphthyridin-4-yl)oxy]phenyl]-5-(4-fluorophenyl)-1,6-dimethyl-4-oxopyridazine-3-carboxamide] | 100 to 300 | < 100
COc1cc2nccc(Oc3ccc(NC(=O)c4n[nH]c(C)c(-c5ccc(F)cc5C)c4=O)cc3F)c2nc1OC [Compound 90, N-[4-[(6,7-Dimethoxy-1,5-naphthyridin-4-yl)oxy]-3-fluorophenyl]-5-(4-fluoro-2-methylphenyl)-6-methyl-4-oxo-1H-pyridazine-3-carboxamide] | < 100 | < 100
COc1cc2nccc(Oc3ncc(NC(=O)c4cn(-c5ccn(C)n5)cc(-c5ccc(F)cc5)c4=O)cc3F)c2cc1OC [Compound 402, N-[6-(6,7-dimethoxyquinolin-4-yl)oxy-5-fluoropyridin-3-yl]-5-(4-fluorophenyl)-1-(1-methylpyrazol-3-yl)-4-oxopyridine-3-carboxamide] | > 300 | < 100
COc1cnc2c(Oc3ccc(NC(=O)c4c(C)nc(C)c(-c5ccc(F)cc5)c4O)cc3F)ccnc2c1 [Compound 66, N-[3-Fluoro-4-[(7-methoxy-1,5-naphthyridin-4-yl)oxy]phenyl]-5-(4-fluorophenyl)-4-hydroxy-2,6-dimethylpyridine-3-carboxamide] | < 100 | < 100
COc1ccc2nccc(Oc3ccc(NC(=O)c4n[nH]c(C)c(-c5ccc(F)cc5)c4=O)cc3F)c2n1 [Compound 89, N-[3-Fluoro-4-[(6-methoxy-1,5-naphthyridin-4-yl)oxy]phenyl]-5-(4-fluorophenyl)-6-methyl-4-oxo-1H-pyridazine-3-carboxamide] | < 100 | < 100
COc1cc2nccc(Oc3ccc(NC(=O)c4cnc(C)c(-c5ccc(F)cc5)c4O)cc3F)c2nc1OCCCN1CCOCC1 [Compound 424, N-[3-fluoro-4-[[7-methoxy-6-(3-morpholin-4-ylpropoxy)-1,5-naphthyridin-4-yl]oxy]phenyl]-5-(4-fluorophenyl)-4-hydroxy-6-methylpyridine-3-carboxamide] | < 100 | < 100

Results, then the compound that gave them:

IC50 [1] [nM] | IC50 [2] [nM] | SMILES
< 100 | < 100 | Cc1cc(F)ccc1-c1c(C)ncc(C(=O)Nc2ccc(Oc3ccnc4cc(C)c(F)nc34)c(F)c2)c1O [Compound 427, N-[3-fluoro-4-[(6-fluoro-7-methyl-1,5-naphthyridin-4-yl)oxy]phenyl]-5-(4-fluoro-2-methylphenyl)-4-hydroxy-6-methylpyridine-3-carboxamide]
> 300 | < 100 | COc1cc2nccc(Oc3ccc(NC(=O)c4nc(C)c(C)n(-c5ccc(F)cc5)c4=O)cc3F)c2nc1OC [Compound 95, N-[4-[(6,7-Dimethoxy-1,5-naphthyridin-4-yl)oxy]-3-fluorophenyl]-4-(4-fluorophenyl)-5,6-dimethyl-3-oxopyrazine-2-carboxamide]
< 100 | < 100 | COc1cc2nccc(Oc3ccc(NC(=O)c4cn(C)c(C)c(-c5ccc(F)cc5)c4=O)cc3F)c2nc1OC [Compound 58, N-[4-[(6,7-Dimethoxy-1,5-naphthyridin-4-yl)oxy]-3-fluorophenyl]-5-(4-fluorophenyl)-1,6-dimethyl-4-oxopyridine-3-carboxamide]
< 100 | < 100 | COCCOc1nc2c(Oc3ccc(NC(=O)c4cnc(C)c(-c5ccc(F)cc5)c4O)cc3F)ccnc2cc1OC [Compound 68, N-[3-Fluoro-4-[[7-methoxy-6-(2-methoxyethoxy)-1,5-naphthyridin-4-yl]oxy]phenyl]-5-(4-fluorophenyl)-4-hydroxy-6-methylpyridine-3-carboxamide]
> 300 | < 100 | COc1cc2nccc(Oc3ccc(NC(=O)c4cn(C(C)(C)C)cc(-c5ccc(F)cc5)c4=O)cc3F)c2nc1OC [Compound 48, 1-tert-Butyl-N-[4-[(6,7-dimethoxy-1,5-naphthyridin-4-yl)oxy]-3-fluorophenyl]-5-(4-fluorophenyl)-4-oxopyridine-3-carboxamide]
< 100 | < 100 | COc1ccc2nccc(Oc3ccc(NC(=O)c4c(C)nc(C)c(-c5ccc(F)cc5C)c4O)cc3F)c2n1 [Compound 70, N-[3-Fluoro-4-[(6-methoxy-1,5-naphthyridin-4-yl)oxy]phenyl]-5-(4-fluoro-2-methylphenyl)-4-hydroxy-2,6-dimethylpyridine-3-carboxamide]
> 300 | < 100 | COc1cc2nccc(Oc3ccc(NC(=O)c4c5n(cc(-c6ccc(F)cc6)c4=O)CCC5)cc3)c2nc1OC [Compound 407, N-[4-[(6,7-dimethoxy-1,5-naphthyridin-4-yl)oxy]phenyl]-6-(4-fluorophenyl)-7-oxo-2,3-dihydro-1H-indolizine-8-carboxamide]
100 to 300 | < 100 | COc1cc2nccc(Oc3ccc(NC(=O)c4cn(C)c(CO)c(-c5ccc(F)cc5)c4=O)cc3F)c2nc1OC [Compound 72, N-[4-[(6,7-Dimethoxy-1,5-naphthyridin-4-yl)oxy]-3-fluorophenyl]-5-(4-fluorophenyl)-6-(hydroxymethyl)-1-methyl-4-oxopyridine-3-carboxamide]
< 100 | < 100 | COc1nc2c(Oc3ccc(NC(=O)c4c(C)nc(C)c(-c5ccc(F)cc5)c4O)cc3F)ccnc2cc1O [Compound 431, N-[3-fluoro-4-[(7-hydroxy-6-methoxy-1,5-naphthyridin-4-yl)oxy]phenyl]-5-(4-fluorophenyl)-4-hydroxy-2,6-dimethylpyridine-3-carboxamide]
